For the assay, the system named is HiBiT-HSD17β13 fusion protein (N-terminal HiBiT-tagged HSD17β13 isoform D) in Huh7 HiBiT-HSD17β13 OE cells. In words: Whole-cell Huh7-HSD17B13 HiBiT assay (degrader potency and maximal efficacy, luminescence readout). The format is cell-based, human. Conditions: 24 hour incubation, geometric mean, * = geometric mean for all forms tested (parent and salt forms). The method in brief:
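Huh7 cells stably overexpressing N-terminal HiBiT-tagged HSD17β13 isoform D, clone matched to primary hepatocyte expression, were exposed to an 11-point, 1 in 3.162 dilution series (top 1 μM final) for 24 h at 37° C. Lytic HiBiT luminescence was normalised to DMSO and parental-cell controls; DC50 from four-parameter logistic fit, with CellTiter-Glo counter screen.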
Background: HiBiT is a short tag that completes a luciferase, so light tracks the accessible tagged protein.

Each structure is given as a SMILES string. Structures can show the parent of a compound that is named as a salt.

By DC50 is commonly meant the concentration giving 50% degradation. Regarding `Cn1nc(N2CCC(=O)NC2=O)c2ccc(CCCN3CCN(c4nccc(-c5nc([C@]67CC[C@](CNC(=O)c8cc(F)c(O)c(F)c8F)(CC6)CC7)no5)n4)CC3)cc21` [Example 133, N-[(4-{5-[2-(4-{3-[3-(2,4-dioxo-1,3-diazinan-1-yl)-1-methyl-1H-indazol-6-yl]propyl}piperazin-1-yl)pyrimidin-4-yl]-1,2,4-oxadiazol-3-yl}bicyclo[2.2.2]octan-1-yl)methyl]-2,3,5-trifluoro-4-hydroxybenzamide, trifluoroacetate salt], the half-maximal degradation concentration (DC50) (read-out: Huh7_HIBIT-HSD17β13_DC50 GMean DC50) stood at 2.1 nM. The “Huh7_HIBIT-HSD17β13_DC50 GMean Asymptote Maximum” value (max. concentration 1 μM) was determined as 73%.

These data come from patent publication US20240238425A1, “HSD17B13 Inhibitors and/or Degraders” (Pfizer Inc., priority 2022, published 2024).
